Target: T1, Q46 protein aggregates (Homo sapiens, UniProt P42858)
T1 construct: fused on or other part: GST at the N-terminus, cut off with thrombin before the test to start aggregation; The wells held aggregated Q46 without GST
Assay: Q46 radioligand binding assay (RBA)
Conditions: 10 nM ligand [3H3]MK-3328
Experimental: Q46 Radioligand Binding Assay
For radioligand binding assays (RBA) GST-Q46 protein was generated based on a previous publication (Scherzinger et al. Cell, Vol. 90, 549-558, Aug. 8, 1997). For experiments 33 μM GST-Q46 was incubated with 150 μg/mL thrombin in assay buffer (150 mM NaCl, 50 mM Tris pH 8.0) and 2 mM CaCl2 for 16 hours at 37° C. Aggregated Q46 was pelleted by centrifugation for 5 minutes at 13,000 rpm in a bench top centrifuge and re-dissolved in the same volume of assay buffer. Test compounds were prepared by titration in DMSO at 11 concentrations from 33 μM to 1 nM. For the RBA, Q46 protein aggregates and test compounds were pre-incubated in assay buffer for 20 minutes at room temperature, in 140 μL/well in a 96-well plate (pp, round bottom). Then, ligand was added in 10 μL/well and incubated for 60 minutes at 37° C. Final assay concentrations were 1 μM to 30 pM test compound, 5 μM Q46 protein (equivalent monomer concentration) and 10 nM ligand [^3H3]MK-3328 (Harrision et al., ACS Med. Chem. Lett., 2 (2011), pp 498-502). Samples were transferred onto GF/B filter plates and washed 2× with 200 μL PBS using a Filtermate Harvester. After drying filter plates for 1 hour at 37° C., the back of the plates were sealed with foil and 30 μL/well scintillation fluid (Packard MicroScint 40) added, incubated for 15 minutes in the dark and counted in a TopCount reader. For analysis, replicate data from independent assay plates were normalized towards 0% and 100% inhibition using control wells of vehicle (0% inhibition) and 3 μM unlabelled MK-3328 (100% inhibition). IC50 values were determined with a sigmoidal inhibition model with four variables (top, bottom, slope, IC50) in a global fit using the normalized replicate data.

T1 sequence (P42858 with tags, fused parts or gaps with the stated changes, form open): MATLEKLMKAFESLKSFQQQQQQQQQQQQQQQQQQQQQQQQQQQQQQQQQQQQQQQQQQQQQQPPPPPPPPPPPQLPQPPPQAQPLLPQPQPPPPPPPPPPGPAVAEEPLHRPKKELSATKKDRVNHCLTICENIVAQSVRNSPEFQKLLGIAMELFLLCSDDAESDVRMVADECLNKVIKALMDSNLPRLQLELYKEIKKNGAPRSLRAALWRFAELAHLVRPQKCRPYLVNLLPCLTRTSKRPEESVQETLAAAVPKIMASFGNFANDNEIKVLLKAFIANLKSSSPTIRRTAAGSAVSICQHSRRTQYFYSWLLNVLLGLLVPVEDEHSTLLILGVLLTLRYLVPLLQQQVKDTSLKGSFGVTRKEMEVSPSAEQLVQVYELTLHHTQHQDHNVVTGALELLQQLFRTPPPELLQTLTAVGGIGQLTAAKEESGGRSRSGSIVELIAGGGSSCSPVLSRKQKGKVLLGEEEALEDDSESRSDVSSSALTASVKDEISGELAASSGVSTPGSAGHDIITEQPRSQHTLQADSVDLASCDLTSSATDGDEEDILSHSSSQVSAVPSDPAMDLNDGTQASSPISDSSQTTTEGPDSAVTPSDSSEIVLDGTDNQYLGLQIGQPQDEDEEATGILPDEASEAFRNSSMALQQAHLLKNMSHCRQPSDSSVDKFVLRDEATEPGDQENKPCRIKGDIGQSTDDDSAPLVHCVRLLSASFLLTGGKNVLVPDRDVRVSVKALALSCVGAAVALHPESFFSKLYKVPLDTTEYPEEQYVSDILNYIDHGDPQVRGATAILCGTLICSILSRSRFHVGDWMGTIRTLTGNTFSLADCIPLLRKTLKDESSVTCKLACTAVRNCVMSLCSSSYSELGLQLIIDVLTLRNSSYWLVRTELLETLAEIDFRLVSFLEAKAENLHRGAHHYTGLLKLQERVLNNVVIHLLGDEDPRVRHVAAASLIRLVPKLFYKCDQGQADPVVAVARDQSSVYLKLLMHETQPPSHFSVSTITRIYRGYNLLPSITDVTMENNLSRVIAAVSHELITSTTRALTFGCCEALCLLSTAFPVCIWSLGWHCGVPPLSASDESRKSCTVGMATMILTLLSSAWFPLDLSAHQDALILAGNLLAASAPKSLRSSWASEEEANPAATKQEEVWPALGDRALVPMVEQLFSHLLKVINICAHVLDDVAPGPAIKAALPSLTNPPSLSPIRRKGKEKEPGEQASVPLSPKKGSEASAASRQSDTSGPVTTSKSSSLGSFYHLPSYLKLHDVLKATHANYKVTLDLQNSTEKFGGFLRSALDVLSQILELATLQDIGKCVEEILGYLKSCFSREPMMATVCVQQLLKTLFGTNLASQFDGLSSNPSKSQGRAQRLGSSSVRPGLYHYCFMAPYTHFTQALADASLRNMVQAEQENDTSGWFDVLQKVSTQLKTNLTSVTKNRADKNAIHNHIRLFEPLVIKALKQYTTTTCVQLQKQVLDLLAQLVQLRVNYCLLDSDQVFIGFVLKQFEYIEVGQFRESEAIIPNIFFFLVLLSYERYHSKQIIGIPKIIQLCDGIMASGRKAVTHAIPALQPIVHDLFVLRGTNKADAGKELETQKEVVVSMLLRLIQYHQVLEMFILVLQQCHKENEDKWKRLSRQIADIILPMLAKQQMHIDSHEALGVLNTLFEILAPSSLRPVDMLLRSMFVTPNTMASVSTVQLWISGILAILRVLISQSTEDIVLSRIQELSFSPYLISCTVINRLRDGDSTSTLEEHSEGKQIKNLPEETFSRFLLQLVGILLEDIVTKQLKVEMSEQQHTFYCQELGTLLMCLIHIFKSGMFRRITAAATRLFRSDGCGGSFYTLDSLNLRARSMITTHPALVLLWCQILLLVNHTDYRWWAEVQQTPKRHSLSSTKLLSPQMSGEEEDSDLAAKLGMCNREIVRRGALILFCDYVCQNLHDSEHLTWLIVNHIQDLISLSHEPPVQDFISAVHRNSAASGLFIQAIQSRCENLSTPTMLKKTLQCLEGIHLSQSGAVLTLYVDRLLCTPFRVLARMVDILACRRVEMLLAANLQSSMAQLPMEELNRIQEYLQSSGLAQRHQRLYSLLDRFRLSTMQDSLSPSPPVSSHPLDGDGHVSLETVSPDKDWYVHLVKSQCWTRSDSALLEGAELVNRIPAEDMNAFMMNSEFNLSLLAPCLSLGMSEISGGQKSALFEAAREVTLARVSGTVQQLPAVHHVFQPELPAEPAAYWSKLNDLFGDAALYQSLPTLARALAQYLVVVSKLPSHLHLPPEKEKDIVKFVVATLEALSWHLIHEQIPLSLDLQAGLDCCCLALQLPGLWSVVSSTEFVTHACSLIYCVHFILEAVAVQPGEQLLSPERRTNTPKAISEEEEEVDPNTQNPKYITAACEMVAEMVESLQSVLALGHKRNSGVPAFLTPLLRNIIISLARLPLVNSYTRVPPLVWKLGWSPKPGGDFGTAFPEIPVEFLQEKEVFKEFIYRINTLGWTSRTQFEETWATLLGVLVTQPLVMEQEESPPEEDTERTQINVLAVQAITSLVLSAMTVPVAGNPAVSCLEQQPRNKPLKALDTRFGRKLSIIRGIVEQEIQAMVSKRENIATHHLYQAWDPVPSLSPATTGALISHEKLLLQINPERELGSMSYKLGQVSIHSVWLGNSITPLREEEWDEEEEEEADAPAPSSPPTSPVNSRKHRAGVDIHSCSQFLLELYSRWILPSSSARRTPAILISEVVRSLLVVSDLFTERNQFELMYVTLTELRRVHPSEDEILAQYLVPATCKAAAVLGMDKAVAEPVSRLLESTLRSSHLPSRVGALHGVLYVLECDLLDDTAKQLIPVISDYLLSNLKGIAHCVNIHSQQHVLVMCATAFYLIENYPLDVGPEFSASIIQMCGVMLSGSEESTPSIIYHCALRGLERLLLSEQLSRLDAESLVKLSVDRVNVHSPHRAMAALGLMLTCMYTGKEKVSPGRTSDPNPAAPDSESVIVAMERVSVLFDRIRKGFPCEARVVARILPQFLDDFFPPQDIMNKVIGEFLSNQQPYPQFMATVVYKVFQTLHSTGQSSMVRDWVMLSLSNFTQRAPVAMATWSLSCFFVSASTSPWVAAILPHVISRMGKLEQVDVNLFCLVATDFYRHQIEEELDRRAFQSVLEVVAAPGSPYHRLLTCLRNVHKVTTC

| IC50 [nM] | Structure (SMILES) |
| --- | --- |
| < 100 | COc1ccc(COc2ccc3oc(-c4cncs4)nc3c2)nc1 [5-[(5-methoxypyridin-2-yl)methoxy]-2-(1,3-thiazol-5-yl)-1,3-benzoxazole] |
| < 100 | COc1cc(C(=O)Nc2ccc3oc(-c4cccnc4)nc3c2)on1 [3-methoxy-N-[2-(pyridin-3-yl)-1,3-benzoxazol-5-yl]-1,2-oxazole-5-carboxamide] |
| < 100 | Cn1cc(-c2cc3cc(OCc4cncnc4)ccc3o2)c(C#N)n1 [1-methyl-4-[5-(pyrimidin-5-ylmethoxy)-1-benzofuran-2-yl]-1H-pyrazole-3-carbonitrile] |
| 100 to 500 | Cn1ccnc1COc1ccc2oc(-c3ccncc3C#N)cc2c1 [4-{5-[(1-methyl-1H-imidazol-2-yl)methoxy]-1-benzofuran-2-yl}pyridine-3-carbonitrile] |
| 100 to 500 | CN(C)CCOc1ccc(COc2ccc3oc(-c4cccnc4)nc3c2)cc1 [dimethyl({2-[4-({[2-(pyridin-3-yl)-1,3-benzoxazol-5-yl]oxy}methyl)phenoxy]ethyl})amine] |
| < 100 | COc1ccc(COc2ccc3oc(-c4ccc(N)nc4)nc3c2)nc1 [5-{5-[(5-methoxypyridin-2-yl)methoxy]-1,3-benzoxazol-2-yl}pyridin-2-amine] |
| < 100 | N#Cc1cccc(C(=O)Nc2ccc3oc(-c4cccnc4)nc3c2)c1 [3-cyano-N-[2-(pyridin-3-yl)-1,3-benzoxazol-5-yl]benzamide] |
| < 100 | O=C(Nc1ccc2oc(-c3cccnc3)nc2c1)c1ccc(Oc2ccccc2)nc1 [6-phenoxy-N-[2-(pyridin-3-yl)-1,3-benzoxazol-5-yl]pyridine-3-carboxamide] |
| < 100 | O=C(Nc1ccc2oc(-c3cccnc3)nc2c1)c1cccnc1Oc1ccccc1 [2-phenoxy-N-[2-(pyridin-3-yl)-1,3-benzoxazol-5-yl]pyridine-3-carboxamide] |
| < 100 | N#Cc1cnccc1-c1cc2cc(OCc3cnn(CCO)c3)ccc2o1 [4-(5-{[1-(2-hydroxyethyl)-1H-pyrazol-4-yl]methoxy}-1-benzofuran-2-yl)pyridine-3-carbonitrile] |
| < 100 | COc1ccc(C(=O)Nc2ccc3oc(-c4ccncc4)nc3c2)cc1 [4-methoxy-N-[2-(pyridin-4-yl)-1,3-benzoxazol-5-yl]benzamide] |
| < 100 | COc1ccc(COc2ccc3oc(-c4cccc(Oc5ccccc5)c4)nc3c2)nc1 [5-[(5-methoxypyridin-2-yl)methoxy]-2-(3-phenoxyphenyl)-1,3-benzoxazole] |
| 100 to 500 | Cn1cc(-c2ccc3oc(-c4cccnc4)nc3c2)cn1 [5-(1-methyl-1H-pyrazol-4-yl)-2-(pyridin-3-yl)-1,3-benzoxazole] |
| < 100 | COc1cnc2c(c1)CN(c1ccc3oc(-c4cccnc4)nc3c1)C2=O [3-methoxy-6-[2-(pyridin-3-yl)-1,3-benzoxazol-5-yl]-5H,6H,7H-pyrrolo[3,4-b]pyridin-7-one] |
| 100 to 500 | COc1cccnc1C(=O)Nc1ccc2oc(-c3cccnc3)nc2c1 [3-methoxy-N-[2-(pyridin-3-yl)-1,3-benzoxazol-5-yl]pyridine-2-carboxamide] |
| < 100 | COc1ccc(COc2ccc3oc(-c4cncc(C)c4)nc3c2)nc1 [5-[(5-methoxypyridin-2-yl)methoxy]-2-(5-methylpyridin-3-yl)-1,3-benzoxazole] |
| < 100 | CSc1ccc(C(=O)Nc2ccc3oc(-c4cccnc4)nc3c2)cc1 [4-(methylsulfanyl)-N-[2-(pyridin-3-yl)-1,3-benzoxazol-5-yl]benzamide] |
| 100 to 500 | Cn1nc(COc2cnc3oc(-c4cccnc4)nc3c2)ccc1=O [2-methyl-6-({[2-(pyridin-3-yl)-[1,3]oxazolo[5,4-b]pyridin-6-yl]oxy}methyl)-2,3-dihydropyridazin-3-one] |
| < 100 | CC(=O)Oc1ccc(C(=O)Nc2ccc3oc(-c4ccc(Cl)cc4)nc3c2)cc1 [4-{[2-(4-chlorophenyl)-1,3-benzoxazol-5-yl]carbamoyl}phenyl acetate] |
| < 100 | O=C(Nc1ccc2oc(-c3cccnc3)nc2c1)c1cccc(OCc2ccccc2)c1 [3-(benzyloxy)-N-[2-(pyridin-3-yl)-1,3-benzoxazol-5-yl]benzamide] |
| < 100 | O=C(Nc1ccc2oc(-c3ccccc3)nc2c1)c1ccccc1 [N-(2-phenyl-1,3-benzoxazol-5-yl)benzamide] |
| < 100 | Brc1ccc(COc2ccc3oc(-c4cccnc4)nc3c2)nc1 [5-[(5-bromopyridin-2-yl)methoxy]-2-(pyridin-3-yl)-1,3-benzoxazole] |

| IC50 [nM] | Structure (SMILES) |
| --- | --- |
| < 100 | COc1cnc(COc2cnc3oc(-c4cnn(C)c4)nc3c2)cn1 [2-methoxy-5-({[2-(1-methyl-1H-pyrazol-4-yl)-[1,3]oxazolo[5,4-b]pyridin-6-yl]oxy}methyl)pyrazine] |
| < 100 | O=C(Nc1ccc2oc(-c3cccnc3)nc2c1)c1cnc(-c2ccccc2)nc1 [2-phenyl-N-[2-(pyridin-3-yl)-1,3-benzoxazol-5-yl]pyrimidine-5-carboxamide] |
| < 100 | COc1ccc(COc2ccc3oc(-c4cccc(C#N)c4)nc3c2)nc1 [3-{5-[(5-methoxypyridin-2-yl)methoxy]-1,3-benzoxazol-2-yl]benzonitrile] |
| 100 to 500 | C1=C(COc2ccc3oc(-c4cccnc4)nc3c2)N2CCN=C2S1 [5-{5H,6H-imidazo[2,1-b][1,3]thiazol-3-ylmethoxy}-2-(pyridin-3-yl)-1,3-benzoxazole] |
| < 100 | CNC(=O)c1ccc(-c2nc3cc(OCc4ccc(O)cn4)ccc3o2)cn1 [5-{5-[(5-hydroxypyridin-2-yl)methoxy]-1,3-benzoxazol-2-yl}-N-methylpyridine-2-carboxamide] |
| 100 to 500 | COc1ncc(-c2ccc3oc(-c4cccnc4)nc3c2)cn1 [5-(2-methoxypyrimidin-5-yl)-2-(pyridin-3-yl)-1,3-benzoxazole] |
| < 100 | COc1ccc(COc2ccc3oc(-c4ccncc4C#N)cc3c2)nc1 [4-{5-[(5-methoxypyridin-2-yl)methoxy]-1-benzofuran-2-yl}pyridine-3-carbonitrile] |
| < 100 | COc1ccc(C(=O)Nc2ccc3oc(-c4cccc(C)c4)nc3c2)cc1 [4-methoxy-N-[2-(3-methylphenyl)-1,3-benzoxazol-5-yl]benzamide] |
| < 100 | O=C(Nc1ccc2oc(-c3cccnc3)nc2c1)c1nnc(-c2ccccc2)o1 |
| < 100 | COc1ccc(COc2ccc3oc(-c4ccc[n+]([O-])c4)nc3c2)nc1 [3-{5-[(5-methoxypyridin-2-yl)methoxy]-1,3-benzoxazol-2-yl}pyridin-1-ium-1-olate] |
| < 100 | Brc1cnccc1-c1nc2ccc(OCCN3CCOCC3)cc2s1 [2-(3-bromopyridin-4-yl)-6-[2-(morpholin-4-yl)ethoxy]-1,3-benzothiazole] |
| < 100 | COc1ccc(COc2ccc3oc(-c4ccncn4)nc3c2)nc1 [5-[(5-methoxypyridin-2-yl)methoxy]-2-(pyrimidin-4-yl)-1,3-benzoxazole] |
| < 100 | Cn1cnc(COc2ccc3oc(-c4ccncc4C#N)cc3c2)c1 [4-{5-[(1-methyl-1H-imidazol-4-yl)methoxy]-1-benzofuran-2-yl}pyridine-3-carbonitrile] |
| 100 to 500 | COc1cnc(COc2ccc3c(c2)nc(-c2cccnc2)n3C)cn1 [5-[(5-methoxypyrazin-2-yl)methoxy]-1-methyl-2-(pyridin-3-yl)-1H-1,3-benzodiazole] |
| < 100 | COc1ccc(COc2ccc3oc(-c4ccc(OC)cn4)nc3c2)nc1 [2-(5-methoxypyridin-2-yl)-5-[(5-methoxypyridin-2-yl)methoxy]-1,3-benzoxazole] |
| < 100 | COc1ccc(COc2ccc3oc(-c4ccc(C(F)(F)F)nc4)nc3c2)nc1 [5-[(5-methoxypyridin-2-yl)methoxy]-2-[6-(trifluoromethyl)pyridin-3-yl]-1,3-benzoxazole] |
| < 100 | COc1ccc(OCc2ccc3oc(-c4cccnc4)nc3c2)nc1 [5-{[(5-methoxypyridin-2-yl)oxy]methyl}-2-(pyridin-3-yl)-1,3-benzoxazole] |
| < 100 | COc1ccc(COc2cnc3oc(-c4cccnc4)nc3c2)nc1 [3-{6-[(5-methoxypyridin-2-yl)methoxy]-[1,3]oxazolo[5,4-b]pyridin-2-yl}pyridine] |
| < 100 | COc1ccc(COc2ccc3oc(-c4ccc(NC(C)=O)nc4)nc3c2)nc1 [N-(5-{5-[(5-methoxypyridin-2-yl)methoxy]-1,3-benzoxazol-2-yl}pyridin-2-yl)acetamide] |
| < 100 | COc1cnc(-c2ccc3oc(-c4cccnc4)nc3c2)nc1 [5-(5-methoxypyrimidin-2-yl)-2-(pyridin-3-yl)-1,3-benzoxazole] |
| < 100 | Cn1cc(COc2ccc3oc(-c4cnccc4C#N)cc3c2)cn1 [3-{5-[(1-methyl-1H-pyrazol-4-yl)methoxy]-1-benzofuran-2-yl}pyridine-4-carbonitrile] |
| < 100 | Cn1cc(C(=O)Nc2ccc3oc(-c4cccnc4)nc3c2)cn1 [1-methyl-N-[2-(pyridin-3-yl)-1,3-benzoxazol-5-yl]-1H-pyrazole-4-carboxamide] |

Source: patent publication US12258355B2, “Probes for imaging huntingtin protein” (CHDI Foundation, Inc., priority 2014, dated 2025)
